Series [1] in a line: physchem. The note with it: 100 mm phosphate buffer.
Method: (§1) (i) The chosen ester of pyroglutamic acid was dissolved in aqueous buffer of a selected pH value, to provide a 0.1% w/v solution of the ester;
(§2) (ii) Intact (unhydrolysed) ester was analysed by high performance liquid chromatography at regular time intervals.
(§3) (iii) The log of the amount of the ester remaining intact versus time was plotted to give a straight line response.
(§4) (iv) From this plot, the time required for half of the ester of pyroglutamic acid to be hydrolysed (half of the ester remaining intact), can be determined if necessary by extrapolation.
(§5) *Assay performed in 100 mM phosphate buffer at 30° C.
The nature of series [2]: Stability of esters of pyroglutamic acid in aqueous buffer (half-life of hydrolysis, intact ester by HPLC).
Method: as §1, §2, §3, §4, §5
Series [3] in a line: Delivery of pyroglutamic acid to the stratum corneum after topical application of tritiated esters to the arms of volunteers (radio-tracer technique). It counts as in vivo, human. Particulars: [3H] pyroglutamic acid applied topically instead of ester. An excerpt:
Accordingly, [^3 H] esters of pyroglutamic acid were each dissolved at 1% w/v in anhydrous ethanol or in an oil-in-water emulsion base. […] The [^3 H] pyroglutamic acid was separated from unchanged ester by chromotography on AG1X8 resin and the amount delivered to the skin expressed as nmoles per mg of stratum corneum protein.

Structures are written as SMILES.

Turning to `CCOC(=O)C(C)OC(=O)C1CCC(=O)N1` (stereo not shown) [Ethyl-2-[pyroglutamoyloxy]-n-propionate, ethyl-2-[pyroglutamoyloxy]-n-propionate], the values for the half-life in series [1] (pH 4) and in series [1] (pH 7) were 70.8 days and 0.375 days, respectively.

On to `CCOC(=O)[C@@H]1CCC(=O)N1` [Pyroglutamic acid ethyl ester, pyroglutamic acid ethyl ester], for which the half-life in series [2] (100 mm phosphate buffer, pH 4) is 11000 h; in series [2] (100 mm phosphate buffer, pH 7), 58 h; in series [2] (aqueous buffer, pH 6.5) it was 288 h; in series [2] (aqueous buffer, pH 6.8), 168 h; in series [2] (aqueous buffer, pH 7), 57.6 h; in series [2] (aqueous buffer, pH 7.4), 48 h. The compound further showed a half-life in series [2] (aqueous buffer, pH 7.8) of 24 h.

With `CCCCOC(=O)[C@@H]1CCC(=O)N1` [Pyroglutamic acid n-butyl ester, pyroglutamic acid n-butyl ester], the half-life was 625 days in series [1] (pH 4) and 3.33 days in series [1] (pH 7).

As for `CCCCCCOC(=O)[C@@H]1CCC(=O)N1` [Pyroglutamic acid n-hexyl ester, pyroglutamic acid n-hexyl ester], the half-life was 750 days in series [1] (pH 4) and 4 days in series [1] (pH 7).

As for `CCCCCCCCOC(=O)[C@@H]1CCC(=O)N1` [Pyroglutamic acid n-octyl ester, pyroglutamic acid n-octyl ester], the half-life in series [1] (pH 4) was 750 days; in series [1] (pH 7), 4 days.

For the compound `O=C1CCC(C(=O)O)N1` (stereo not shown) [[^3 H] pyroglutamic acid, 2-pyrrolidone-5-carboxylic acid], the “amount of tritiated free acid recovered from the stratum corneum” value in series [3] is “negligible amount”.

Values taken from patent US4986982A, “Cosmetic composition” (priority 1988, dated 1991).
